Measurements: paper PMC11243625, “Synthesis, Docking, and Machine Learning Studies of Some Novel Quinolinesulfonamides–Triazole Hybrids with Anticancer Activity” (Molecules, 2024)
Entries after “also recorded” stand apart in the source; their conditions may differ. Where two headings read alike, the source gives them in different places.

What was measured:
SNB-19 = experiment: WST-1 test, glioblastoma cells; format: cell-based, human
Procedure: (§1) Hybrids 4–14 were tested as anticancer agents against four human cancer cell lines: colon cancer (Caco-2), glioblastoma (SNB-19), lung cancer (A549), ovarian cancer (SKOV-3), and normal human dermal fibroblasts (NHDFs). Cisplatin was used as the reference substance. The results are presented as the compound concentration of the compound (μM) that inhibits the growth of 50% of cancer cells compared to control cells (IC50). A negative value (Neg) means that the compound concentration of the tested hybrids was greater than 500 µM. […] It is generated only by a weak van der Waals interaction with Arg84. […] There is also a visible difference in activity depending on the type of group present on the triazole ring (substituent C in Figure 2). The results obtained indicate that hybrids containing aromatic systems as a C substituent in their structure, especially another quinoline molecule (compounds 9 and 10), have high activity.
(§2) Cell cultures were performed in 96-well plates (Nunc Thermo Fisher Scientific, Waltham, MA, USA). Cells were seeded at 5 × 10^4/well and incubated for 24 h (at 37 °C, 5% CO2, and constant humidity). The medium was replaced with fresh with the addition of test compounds at a concentration of 0.1–100 µg/mL of DMSO and incubated again for another 72 h. After this time, the WST-1 test (Roche Molecular Biochemicals, Mannheim, Germany) was performed to assess the metabolic activity of the cells. Absorbance was measured at λ = 450 nm using a UVM340 microplate reader (Biogenet, Józefów, Poland). Results are expressed as the mean value of at least three independent experiments performed in triplicate.

SKOV-3 = experiment: WST-1 test, ovarian cancer cells; format: cell-based, human; details: Homo sapiens, SK-OV-3, 72 h
Procedure: as §1, §2

NHDF = experiment: WST-1 test, normal human dermal fibroblasts; format: cell-based; details: 72 h, WST-1, normal cells; for IC50: Homo sapiens, NHDF
Procedure: as §1, §2

A549 [1] = experiment: WST-1 test, lung cancer cells; format: cell-based, human; details: for IC50: Homo sapiens, A549, 72 h, read-out: IC50 A-549
Procedure: as §1, §2

Caco-2 = experiment: WST-1 test, colon cancer cells; format: cell-based, human
Procedure: Hybrids 4–14 were tested as anticancer agents against four human cancer cell lines: colon cancer (Caco-2), glioblastoma (SNB-19), lung cancer (A549), ovarian cancer (SKOV-3), and normal human dermal fibroblasts (NHDFs).
as §2

A549 [2] = tested on: A549; design: method as in doi:10.1016/j.arabjc.2016.10.009; details: values marked *; read-out: IC50 A-549; cited from earlier work

Compound `CN(Cc1cn(CSc2ccccc2)nn1)S(=O)(=O)c1cccc2cccnc12` [Compound 8b, 8-N-Methyl-N-[(1-methylthiophenyl-1H-1,2,3-triazol-4-yl)methyl]quinolinesulfonamide] has an IC50 (SNB-19; 72 h) of 0.35 µM, an IC50 (SNB-19; Homo sapiens, SNB-19, 72 h) of no more than 0.4 µM and an IC50 (SKOV-3) greater than 500 µM. The IC50 (NHDF) was greater than 500 µM, the IC50 (A549 [1]) was greater than 500 µM and the melting point was 118 to 119 °C. It also gave an IC50 (Caco-2; Homo sapiens, Caco-2, 72 h) of 340 nM.

For `O=S(=O)(NCc1cn(-c2ccnc3cc(Cl)ccc23)nn1)c1cccc2cccnc12` [Compound 9a, 8-N-{[1-(7-chloroquinolin-4-yl)-1H-1,2,3-triazol-4-yl]methyl}quinolinesulfonamide], the IC50 (A549 [2]) is listed as greater than 500 µM, the IC50 (SNB-19; Homo sapiens, SNB-19, 72 h) is listed as 62.4 µM and the IC50 (SKOV-3) is listed as 108 µM. It also gave an IC50 (NHDF) greater than 500 µM and an IC50 (Caco-2; Homo sapiens, Caco-2, 72 h) of 18000 nM.

With `CN(Cc1cn(-c2ccnc3cc(Cl)ccc23)nn1)S(=O)(=O)c1cccc2cccnc12` [Compound 9b, 8-N-Methyl-N-{[1-(7-chloroquinolin-4-yl)-1H-1,2,3-triazol-4-yl]methyl}quinolinesulfonamide] the IC50 (SNB-19; 72 h) was 0.38 µM, the IC50 (SNB-19; Homo sapiens, SNB-19, 72 h) was no more than 0.4 µM and the IC50 (SKOV-3) was 4.16 µM. For the same compound, the “IC50 NHDF” value (NHDF) was “lack of cytotoxicity; also recorded: no activity towards NHDF”, the IC50 (NHDF) was greater than 500 µM and the “IC50 A-549” value (A549 [1]; 72 h) was “nanomolar concentration range”. The IC50 (A549 [1]) was 0.4 µM, the melting point was 189 to 190 °C and the IC50 (Caco-2; Homo sapiens, Caco-2, 72 h) was 260 nM.

`O=S(=O)(NCc1cn(-c2ccnc3c(Br)cccc23)nn1)c1cccc2cccnc12` [Compound 10a, 8-N-{[1-(8-Bromoquinolin-4-yl)-1H-1,2,3-triazol-4-yl]methyl}quinolinesulfonamide] showed an IC50 (SNB-19; Homo sapiens, SNB-19, 72 h) of 37.4 µM, an IC50 (SKOV-3) of 94.5 µM and an IC50 (NHDF) greater than 500 µM. For the same compound, the IC50 (A549 [1]) was 113 µM, the melting point was 194 to 195 °C and the IC50 (Caco-2; Homo sapiens, Caco-2, 72 h) was 9690 nM.

With `CN(Cc1cn(-c2ccnc3c(Br)cccc23)nn1)S(=O)(=O)c1cccc2cccnc12` [Compound 10b, 8-N-Methyl-N-{[1-(8-bromoquinolin-4-yl)-1H-1,2,3-triazol-4-yl]methyl}quinolinesulfonamide] the IC50 (SNB-19; 72 h) was 0.3 µM, the IC50 (SNB-19; Homo sapiens, SNB-19, 72 h) was no more than 0.4 µM and the IC50 (SKOV-3) was 24.7 µM. For the same compound, the “IC50 NHDF” value (NHDF) was “have activity against normal cells”, the IC50 (NHDF) was 26.2 µM and the IC50 (A549 [1]) was 1.77 µM. For the same compound, the melting point was 206 to 207 °C, the IC50 (Caco-2; 72 h) was 300 nM and the IC50 (Caco-2; Homo sapiens, Caco-2, 72 h) was no less than 300 nM.

`Cc1cn(C2CC(n3cc(CNS(=O)(=O)c4cccc5cccnc45)nn3)C(CO)O2)c(=O)[nH]c1=O` [Compound 11a, 8-N-({1-[(2R, 3S, 5S)-2-(Hydroxymethyl)-5-(5-methyl-2,4-dioxo-3,4-dihydropyrimidin-1(2H)-yl)tertrahydrofuran-3-yl]-1H-1,2,3-triazol-4-yl}methyl)quinolinesulfonamide] showed an IC50 (SNB-19; Homo sapiens, SNB-19, 72 h) of 129 µM, an IC50 (SKOV-3) of 143 µM and an IC50 (NHDF) of 195 µM. It also gave an IC50 (A549 [1]) of 18.1 µM, a melting point of 149 to 150 °C and an IC50 (Caco-2; Homo sapiens, Caco-2, 72 h) of 360 nM.

In the case of `Cc1cn(C2CC(n3cc(CN(C)S(=O)(=O)c4cccc5cccnc45)nn3)C(CO)O2)c(=O)[nH]c1=O` [Compound 11b, 8-N-Methyl-N-({1-[(2R, 3S, 5S)-2-(hydroxymethyl)-5-(5-methyl-2,4-dioxo-3,4-dihydropyrimidin-1(2H)-yl)tertrahydrofuran-3-yl]-1H-1,2,3-triazol-4-yl}methyl)quinolinesulfonamide], the IC50 (SNB-19; Homo sapiens, SNB-19, 72 h) is reported as 0.59 µM, the IC50 (SKOV-3) is reported as 7.16 µM and the “IC50 NHDF” value (NHDF) is reported as “have activity against normal cells”. The IC50 (NHDF) was 98.3 µM, the IC50 (A549 [1]) was 1.29 µM and the melting point was 176 to 178 °C. It also gave an IC50 (Caco-2; Homo sapiens, Caco-2, 72 h) of 480 nM.

Work on `CCCCn1cc(CN(C)S(=O)(=O)c2cccc3cccnc23)nn1` [Compound 12b, 8-N-Methyl-N-{[1-(1-butyl)-1H-1,2,3-triazol-4-yl]methyl}quinolinesulfonamide] yielded an IC50 (SNB-19; Homo sapiens, SNB-19, 72 h) of 63.6 µM, an IC50 (SKOV-3) of 80.4 µM and an IC50 (NHDF) of 242 µM. The IC50 (A549 [1]) was 189 µM, the melting point was 74 to 75 °C and the IC50 (Caco-2; Homo sapiens, Caco-2, 72 h) was 1290 nM.

`CCOC(=O)CCn1cc(CN(C)S(=O)(=O)c2cccc3cccnc23)nn1` [Compound 13b, Ethyl 3-{[4-(N-methylsulfamoyl-8-quinolyl)methyl]-1H-1,2,3-triazol-1-yl}propanoate] showed an IC50 (SNB-19; Homo sapiens, SNB-19, 72 h) of 138 µM, an IC50 (SKOV-3) of 88.2 µM and an IC50 (NHDF) greater than 500 µM. The IC50 (A549 [1]) was greater than 500 µM and the IC50 (Caco-2; Homo sapiens, Caco-2, 72 h) was 85200 nM.

Compound `C=C(Cn1cc(CNS(=O)(=O)c2cccc3cccnc23)nn1)[C@@H]1CC[C@]2(COC(C)=O)CC[C@]3(C)[C@H](CC[C@@H]4[C@@]5(C)CC[C@H](OC(C)=O)C(C)(C)[C@@H]5CC[C@]43C)[C@@H]12` [Compound 14a, 8-N-({1-[3β, 28-Diacetoxylup-20(29)-en-30-yl]-1H-1,2,3-triazol-4-yl}methyl)-quinolinesulfonamide] has an IC50 (SNB-19; Homo sapiens, SNB-19, 72 h) of 101 µM, an IC50 (SKOV-3) greater than 500 µM and an IC50 (NHDF) greater than 500 µM. The IC50 (A549 [1]) was greater than 500 µM, the melting point was 148 to 149 °C and the IC50 (Caco-2; Homo sapiens, Caco-2, 72 h) was greater than 500000 nM.
